Assay results from PMC11124336 (Molecules, 2024).

What was measured:
[1] = biological target: T1, Type II NADH dehydrogenase (NDH-2, NdhC) (Staphylococcus aureus, UniProt Q2FZV7); test: activity of FAD-depleted purified enzyme restored by added FAD; assay type: biochemical
T1 construct: gene SAOUHSC_00878; N-terminal 6His-tagged NDH-2 (ndhC gene from S. aureus 25923)
T1 sequence (Q2FZV7 1-402): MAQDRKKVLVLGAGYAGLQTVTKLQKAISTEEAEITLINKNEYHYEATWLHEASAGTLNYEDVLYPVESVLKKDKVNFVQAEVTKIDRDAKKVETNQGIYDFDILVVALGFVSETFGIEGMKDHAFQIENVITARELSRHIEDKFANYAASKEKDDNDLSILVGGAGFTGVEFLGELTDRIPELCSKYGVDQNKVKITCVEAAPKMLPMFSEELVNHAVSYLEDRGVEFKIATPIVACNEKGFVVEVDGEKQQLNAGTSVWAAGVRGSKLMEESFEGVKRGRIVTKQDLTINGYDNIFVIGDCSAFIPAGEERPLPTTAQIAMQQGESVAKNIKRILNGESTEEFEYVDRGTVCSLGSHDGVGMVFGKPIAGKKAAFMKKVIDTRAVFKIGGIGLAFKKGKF

[2] = biological target: T1, Type II NADH dehydrogenase (NDH-2, NdhC); test: NADH oxidation assay at […] nm with menadione; assay type: biochemical
[3] = substrate: NC(=O)C1=CN([C@@H]2O[C@H](COP(=O)(O)OP(=O)(O)OC[C@H]3O[C@@H](n4cnc5c(N)ncnc54)[C@H](O)[C@@H]3O)[C@@H](O)[C@H]2O)C=CC1; test: steady-state kinetics of purified enzyme (Km); assay type: biochemical, Staphylococcus aureus; settings: FAD
[4] = substrate: CC1=CC(=O)c2ccccc2C1=O; test: steady-state kinetics of purified enzyme (Km); assay type: biochemical, Staphylococcus aureus; settings: FAD

Q: Which “activity of FAD-depleted purified enzyme restored by added FAD” value [1] does the source give for `Cc1cc2nc3c(=O)[nH]c(=O)nc-3n(C[C@H](O)[C@H](O)[C@H](O)COP(=O)(O)OP(=O)(O)OC[C@H]3O[C@@H](n4cnc5c(N)ncnc54)[C@H](O)[C@@H]3O)c2cc1C` [FAD] here?
A: the addition of exogenous FAD to the reaction mix restored the NADH dehydrogenase activity of the recombinant protein

Q: With `CCCCCCCc1cc(O)c2ccccc2[n+]1[O-]` [HQNO, 2-heptyl-4-hydroxyquinoline-N-oxide] as the molecule, how does the IC50 [2] read?
A: 9 µM

B1: Type II NADH dehydrogenase (NDH-2, NdhC) (Staphylococcus aureus subsp. aureus NCTC 8325) (protein)
chain: T1 sequence (Q2FZV7 1-402)
notes: N-terminal 6His-tagged NDH-2 (ndhC gene from S. aureus 25923)
Q: Which Km [3] does the source give for B1 here?
A: 90.8 ± 16.2 µM

Q: And the Km [4]?
A: 19.9 ± 0.7 µM
